Test results reported in US6900193B1, “Structural modification of 19-norprogesterone I: 17-α-substituted-11-β-substituted-4-aryl and 21-substituted 19-norpregnadienedione as new antiprogestational agents” (The United States of America as represented by the …, priority 1996, dated 2005).
Marks after values point to notes of the source that are not given here.

Legend:
[1] = target: T1, glucocorticoid receptor (estrogen-primed rabbit thymus) (Oryctolagus cuniculus, UniProt P59667); experiment: Relative binding affinity, glucocorticoid receptor; conditions: Table 2; estrogen-primed rabbit thymus; dexamethasone = 100%
T1 construct: preparation of cytosols for the progesterone and glucocorticoid receptor assays; from tissue; host or cells: thymus of estradiol-primed immature female New Zealand White rabbits (cytosol)
T1 sequence (P59667 1-772): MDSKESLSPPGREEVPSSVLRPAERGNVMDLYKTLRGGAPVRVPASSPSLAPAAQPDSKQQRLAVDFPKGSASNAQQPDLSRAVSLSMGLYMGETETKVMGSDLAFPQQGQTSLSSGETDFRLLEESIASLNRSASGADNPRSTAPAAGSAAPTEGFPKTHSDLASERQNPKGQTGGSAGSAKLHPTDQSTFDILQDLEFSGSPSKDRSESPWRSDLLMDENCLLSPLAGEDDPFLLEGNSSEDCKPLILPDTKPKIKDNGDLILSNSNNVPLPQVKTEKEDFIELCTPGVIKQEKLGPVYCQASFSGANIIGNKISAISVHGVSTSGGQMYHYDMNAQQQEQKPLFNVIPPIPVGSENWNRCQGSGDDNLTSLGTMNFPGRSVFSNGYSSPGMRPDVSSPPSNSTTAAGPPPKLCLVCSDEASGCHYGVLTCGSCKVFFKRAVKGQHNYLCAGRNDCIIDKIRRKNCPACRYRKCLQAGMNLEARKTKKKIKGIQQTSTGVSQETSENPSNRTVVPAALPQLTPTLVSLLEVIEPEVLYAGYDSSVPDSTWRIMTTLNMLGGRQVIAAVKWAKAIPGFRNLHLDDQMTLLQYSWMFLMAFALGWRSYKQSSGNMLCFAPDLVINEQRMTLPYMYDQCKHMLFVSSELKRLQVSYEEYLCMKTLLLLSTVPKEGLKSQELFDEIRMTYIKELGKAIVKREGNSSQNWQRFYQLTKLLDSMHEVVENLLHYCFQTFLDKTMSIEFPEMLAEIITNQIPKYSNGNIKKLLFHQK

[2] = tested on: pregnancy (number and condition of conceptuses); experiment: Postcoital test; type: in vivo, rat; conditions: rat, days 4-6 subcu
[3] = target: T2, progesterone receptor (estrogen-primed rabbit uterus) (Oryctolagus cuniculus, UniProt P06186); experiment: Relative binding affinity, progesterone receptor; conditions: Table 2; estrogen-primed rabbit uterus; progesterone = 100%
T2 construct: preparation of cytosols for the progesterone and glucocorticoid receptor assays; from tissue; host or cells: uterus of estradiol-primed immature female New Zealand White rabbits (cytosol)
T2 sequence (P06186 1-930): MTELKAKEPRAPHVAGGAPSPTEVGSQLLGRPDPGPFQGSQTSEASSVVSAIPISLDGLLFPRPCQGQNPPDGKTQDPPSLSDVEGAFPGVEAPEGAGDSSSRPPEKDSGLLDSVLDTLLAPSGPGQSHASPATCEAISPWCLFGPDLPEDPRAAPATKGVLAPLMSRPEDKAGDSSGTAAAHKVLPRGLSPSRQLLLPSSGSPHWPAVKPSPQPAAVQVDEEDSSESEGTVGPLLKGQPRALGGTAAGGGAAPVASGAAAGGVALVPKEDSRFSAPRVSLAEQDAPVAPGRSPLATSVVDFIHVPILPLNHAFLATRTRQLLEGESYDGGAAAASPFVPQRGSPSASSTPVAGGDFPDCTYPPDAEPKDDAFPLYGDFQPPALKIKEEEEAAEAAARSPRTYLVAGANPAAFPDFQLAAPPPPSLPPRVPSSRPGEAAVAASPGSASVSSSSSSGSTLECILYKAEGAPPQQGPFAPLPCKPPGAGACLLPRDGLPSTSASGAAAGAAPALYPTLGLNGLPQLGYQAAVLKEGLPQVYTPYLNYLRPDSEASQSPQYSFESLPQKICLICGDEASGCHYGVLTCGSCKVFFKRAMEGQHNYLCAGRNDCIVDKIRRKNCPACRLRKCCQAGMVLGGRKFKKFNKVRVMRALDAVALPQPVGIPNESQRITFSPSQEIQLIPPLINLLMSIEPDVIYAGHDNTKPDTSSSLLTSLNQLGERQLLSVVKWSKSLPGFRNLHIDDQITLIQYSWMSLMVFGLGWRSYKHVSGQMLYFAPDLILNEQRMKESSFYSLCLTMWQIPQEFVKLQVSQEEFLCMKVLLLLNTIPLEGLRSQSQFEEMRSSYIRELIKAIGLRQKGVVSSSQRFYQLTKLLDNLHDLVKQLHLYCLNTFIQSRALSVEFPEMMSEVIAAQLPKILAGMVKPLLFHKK

[4] = tested on: progesterone-induced endometrial proliferation; experiment: AntiClauberg test; type: in vivo, rabbit; conditions: Table 2, CDB-2914 = 100 (assigned)
Outline: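 Immature NZW rabbits were estradiol-primed s.c. for 6 days, then given progesterone 0.8 mg/day s.c. plus compound orally or s.c. for 5 days. Uteri were sectioned and H&E-scored for endometrial glandular proliferation (McPhail). Percent inhibition was calculated per dose versus progesterone-only animals.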

| BINDING AFFINITY Glucocortic [1] [%] | BINDING AFFINITY Progester [3] [%] | SMILES | Postcoital MED100 (*) [2] | BIOLOGICAL ACTIVITY antiClauberg (subcu) ([4]; subcutaneous) | BIOLOGICAL ACTIVITY antiClauberg ([4]; oral) |
| --- | --- | --- | --- | --- | --- |
| 89 | 40 | CCCCCCC(=O)O[C@]1(C(C)=O)CC[C@H]2[C@@H]3CCC4=CC(=O)CCC4=C3[C@@H](c3ccc(N(C)C)cc3)C[C@@]21C [Compound 69D, 17α-Heptanoyloxy-11β-[4-(N,N-dimethylamino)phenyl]-19-norpregna-4,9-diene-3,20-dione] | inac- | weak |  |
| 49 | 91 | CCC(=O)OC1(C(C)=O)CCC2C3CCC4=CC(=O)CCC4=C3C(c3ccc(N(C)C)cc3)CC21C (stereo not drawn) [Compound 69C, 17α-Propionoxy-11β-[4-(N,N-dimethylamino)phenyl]-19-norpregna-4,9-diene-3,20-dione] | 2* mg/day |  | ˜10 |
